Test results from patent US9089565B2, “Compositions and methods for causing neurite outgrowth” (MEDICAL RESEARCH COUNCIL, priority 2009, dated 2015).
Blank lines part the entries; values can stand above or below the molecule they belong to. * marks the point of attachment. Myristoyl = CCCCCCCCCCCCCC(=O)*

Assays:
[1] = tested on: NgR1; assay: Phosphorylation of endogenous NgR1 (upper band, immunoblotting) in RA-treated SH-SY5Y cells; assay type: cell-based, human; conditions: incubated with BDNF in the presence of kinase inhibitor, 24 hours
Protocol: FIG. 1. BDNF promotes neurite outgrowth of RA-treated SH-SY5Y, and induces phosphorylation of NgR1. (A) SH-SY5Y cells were incubated with indicated reagents. Cell images were taken with phase contrast microscopy. (B) Number of cells extending neurite-like structures of more than 40 μm and total cell number were counted from images taken in (A). More than 300 cells were examined in each sample. The proportion of cells extending neurite-like structures of more than 40 μm was indicated as a percentage of total cell number. An average of three experiments is shown. Error bars indicate S. E. between experiments. Data were analysed with student's t test. (C) Whole cell extracts were prepared from RA-treated SH-SY5Y cells after incubation with or without BDNF for 24 hours, and were analysed by SDS-PAGE. Immunoblotting was performed with the indicated antibodies. (D) Whole cell extract prepared from cells treated with both RA and BDNF was incubated with the indicated reagents for 1 hour at 37° C. Immunoblotting was performed with anti-NgR1 antibody. (E) RA-treated SH-SY5Y cells were incubated with BDNF in the presence or absence of one of the following: PKC inhibitor—500 nM Gö6983 or Gö6976; PKA inhibitor—2 μM KT5720 or a PKA inhibitor peptide 14-22; or either 500 nM or 1 μM of a casein kinase inhibitor, for 24 hours. Whole cell extracts prepared from these cells were analysed by SDS-PAGE. Immunoblotting was performed with anti-NgR1 antibody.
SH-SY5Y cells were cultured in Ham's F12 medium with 10% foetal bovine serum at 37° C. in 5% CO2 and 95% air. Passage numbers between 15 and 21 were used in experiments described in this paper. Further passages induce spontaneous differentiation and cells tend to extend neurites without BDNF (data not shown). For RA treatment, the cells are seeded (20,000 cells/well) on collagen IV coated 4 well chamber slides. After 24 hours culture, medium was changed to Ham's F12 medium containing 10 μM RA and 10% foetal bovine serum. Medium was changed to fresh medium on day 3 and cells were used for experiments after 5 days culture. Encinas et al. (18) reported that RA-treated SH-SY5Y cells initiate apoptosis after withdrawal of serum only when the cells are cultured at low density. The cell density used in this paper was higher than that in the paper by Encinas et al. (18) and cell death due to depletion of serum or BDNF was not significant. In this paper, the SH-SY5Y cells treated with RA for 5 days are called RA-treated SH-SY5Y. For BDNF treatment, the RA-treated SH-SY5Y cells were washed with serum-free Ham's F12 medium and incubated with 25 ng/ml BDNF in serum-free Ham's F12 medium for 24 hours. As a control (RA alone), the RA-treated SH-SY5Y cells were incubated with serum-free Ham's F12 alone for 24 hours.
Cells were scraped off from dishes and washed with PBS twice, and then resuspended in PBS containing 0.1% Triton X100 and phosphatase inhibitor cocktail (Roche) and EDTA-free protease inhibitor cocktail (Roche). After incubation for 15 min on ice, samples were centrifuged at 14,000×g for 20 min at 4° C. The supernatants containing 30 μg of proteins were analysed by SDS-PAGE and blotted to PVDF membrane. The PVDF membrane was incubated in blocking buffer (5% skimmed milk, 0.4% Triton X-100 in PBS) for 1 hour, first antibody diluted in the blocking buffer and appropriate secondary antibody labelled with horse radish peroxidase. Bound antibodies were visualised with ECL or ECL Plus kit (GE healthcare).

[2] = molecular target: T1, NgR1 (Homo sapiens, UniProt Q9BZR6, S281D); assay: Binding of MAG to COS7 cells over-expressing NgR1; conditions: 281S/D mutant NgR1
T1 construct: The cDNAs of NgR1 (NM 023004, Nt. 184-1543); expressed in transfected cells; host or cells: COS7
T1 sequence (Q9BZR6 27-447 S281D): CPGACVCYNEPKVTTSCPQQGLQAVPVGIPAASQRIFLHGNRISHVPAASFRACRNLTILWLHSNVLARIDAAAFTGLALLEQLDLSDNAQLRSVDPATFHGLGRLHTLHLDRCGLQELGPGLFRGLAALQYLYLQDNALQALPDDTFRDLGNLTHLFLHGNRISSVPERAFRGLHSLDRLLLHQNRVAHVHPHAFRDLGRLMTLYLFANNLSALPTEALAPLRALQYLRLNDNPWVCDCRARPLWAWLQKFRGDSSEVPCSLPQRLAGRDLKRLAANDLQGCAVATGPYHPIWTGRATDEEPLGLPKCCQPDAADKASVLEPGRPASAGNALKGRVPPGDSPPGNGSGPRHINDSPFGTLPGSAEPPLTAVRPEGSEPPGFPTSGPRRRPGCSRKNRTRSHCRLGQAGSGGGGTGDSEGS
Protocol: (§1) FIG. 3. CK2 phosphorylates NgR1, and inhibits binding of the myelin-associated proteins to NgR1. (A) Myc-tagged wild type, 281S/A or 281S/D mutant NgR1 were over-expressed in COS7 cells. The over-expressed cells were incubated with either the combination of ATP and CK2, or NEP1-40 for 30 min at 37° C. After washing with PBS, cells were incubated with Hisx6-tagged Nogo-GFP for 3 hours at 4° C. The cells were fixed and immunofluorescence was performed with anti-Myc and anti-GFP antibodies. (B) COS7 cells over-expressing Myc-tagged wild type NgR1 were treated as described in (A). Proteins were extracted and the Myc-tagged NgR1 was immunoprecipitated with anti-Myc antibody. Co-precipitated Hisx6-tagged Nogo-GFP was detected by anti-GFP antibody. […] The biotinylated proteins were fractionated and analysed by SDS-PAGE. Biotinylated NgR1-Myc was detected with anti-Myc. antibody. […] Myc-tagged proteins were immunoprecipitated and analysed with SDS-PAGE. […]
(§2) After treatment with or without CK2, COS7 cells over-expressing wild type or mutant NgR were incubated with Hisx6 tagged Nogo-GFP (10 μg/ml), HA-MAG (50 μg/ml) or Hisx6 tagged OMgp (10 μg/ml) in PBS for 3 hours at 4° C. […] Biotinylated proteins were precipitated with streptavidin beads and were analysed by SDS-PAGE. Each sample fractionated from 5×10^6 cells was analysed by SDS-PAGE.

[3] = molecular target: T1, NgR1; assay: Binding of OMgp to COS7 cells over-expressing NgR1; conditions: 281S/D mutant NgR1
Protocol: as §1, §2

Molecule: Brc1c(Br)c(Br)c2[nH]nnc2c1Br [CK2 inhibitor, 4,5,6,7-Tetrabromo-2-azabenzimidazole]
level of the upper band of NgR1 [1]: decreased the upper band

Molecule: CCCCCCOC(=O)[C@]1(O)C[C@@H]2O[C@@]1(C)n1c3ccccc3c3c4c(c5c6ccccc6n2c5c31)C(=O)NC4 [KT 5720]
level of the upper band of NgR1 [1]: Neither PKC inhibitors Gö6983 and Gö6976, nor PKA inhibitors KT 5720 and a PKA inhibitor peptide, show effects

Molecule: Cn1c2ccccc2c2c3c(c4c5ccccc5n(CCC#N)c4c21)CNC3=O [Gö6976]
level of the upper band of NgR1 [1]: Neither PKC inhibitors Gö6983 and Gö6976, nor PKA inhibitors KT 5720 and a PKA inhibitor peptide, show effects

Molecule: PKA inhibitor peptide: myristoylated PKA inhibitor peptide 14-22 amide, purchased from Merck (Myristoyl-SGRTGRRNA-NH2; SMILES CCCCCCCCCCCCCC(=O)N[C@@H](CO)C(=O)NCC(=O)N[C@@H](CCCNC(=N)N)C(=O)N[C@H](C(=O)NCC(=O)N[C@@H](CCCNC(=N)N)C(=O)N[C@@H](CCCNC(=N)N)C(=O)N[C@@H](CC(N)=O)C(=O)N[C@@H](C)C(N)=O)[C@@H](C)O; UniProt P61925 14-22, looked up, fragment)
level of the upper band of NgR1 [1]: Neither PKC inhibitors Gö6983 and Gö6976, nor PKA inhibitors KT 5720 and a PKA inhibitor peptide, show effects

Molecule: COc1ccc2c(c1)c(C1=C(c3c[nH]c4ccccc34)C(=O)NC1=O)cn2CCCN(C)C [Gö6983]
level of the upper band of NgR1 [1]: Neither PKC inhibitors Gö6983 and Gö6976, nor PKA inhibitors KT 5720 and a PKA inhibitor peptide, show effects

binding of ligand to cells [2]: Neither OMgp nor MAG bound
B1: MAG: human myelin-associated glycoprotein, HA-tagged, purified from COS7 conditioned medium (protein)
chain: GHWGAWMPSSISAFEGTCVSIPCRFDFPDELRPAVVHGVWYFNSPYPKNYPPVVFKSRTQVVHESFQGRSRLLGDLGLRNCTLLLSNVSPELGGKYYFRGDLGGYNQYTFSEHSVLDIVNTPNIVVPPEVVAGTEVEVSCMVPDNCPELRPELSWLGHEGLGEPAVLGRLREDEGTWVQVSLLHFVPTREANGHRLGCQASFPNTTLQFEGYASMDVKYPPVIVEMNSSVEAIEGSHVSLLCGADSNPPPLLTWMRDGTVLREAVAESLLLELEEVTPAEDGVYACLAENAYGQDNRTVGLSVMYAPWKPTVNGTMVAVEGETVSILCSTQSNPDPILTIFKEKQILSTVIYESELQLELPAVSPEDDGEYWCVAENQYGQRATAFNLSVEFAPVLLLESHCAAARDTVQCLCVVKSNPEPSVAFELPSRNVTVNESEREFVYSERSGLVLTSILTLRGQAQAPPRVICTARNLYGAKSLELPFQG

binding of ligand to cells [3]: Neither OMgp nor MAG bound
B2: OMgp: oligodendrocyte myelin glycoprotein, His-tagged, purchased from R&D (protein, UniProt P23515 25-417, looked up)
Oligodendrocyte-myelin …: ICPLQCICTERHRHVDCSGRNLSTLPSGLQENIIHLNLSYNHFTDLHNQLTQYTNLRTLDISNNRLESLPAHLPRSLWNMSAANNNIKLLDKSDTAYQWNLKYLDVSKNMLEKVVLIKNTLRSLEVLNLSSNKLWTVPTNMPSKLHIVDLSNNSLTQILPGTLINLTNLTHLYLHNNKFTFIPDQSFDQLFQLQEITLYNNRWSCDHKQNITYLLKWMMETKAHVIGTPCSTQISSLKEHNMYPTPSGFTSSLFTVSGMQTVDTINSLSVVTQPKVTKIPKQYRTKETTFGATLSKDTTFTSTDKAFVPYPEDTSTETINSHEAAAATLTIHLQDGMVTNTSLTSSTKSSPTPMTLSITSGMPNNFSEMPQQSTTLNLWREETTTNVKTPLPS
modifications: His tag
notes: oligodendrocyte myelin glycoprotein, His-tagged, purchased from R&D
